# Measured values taken from patent publication US20100009957A1, “NOVEL INHIBITORS OF BETA-LACTAMASE” (priority 2006, published 2010).
# Like-named read-outs stand apart in the source and are kept apart here.
# What was measured:
# [1] = system: P. aeruginosa strain CL5701; assay: Synergy assay (checkerboard) with imipenem; assay type: cell-based, Pseudomonas aeruginosa; details: for In Vitro 2X Synergy CL5701: concentration for 2X synergy with imipenem against P. aeruginosa strain CL5701; for In Vitro 8X Synergy CL5701: concentration for 8X synergy with imipenem against P. aeruginosa strain CL5701; for In Vitro 16X Synergy CL5701: concentration for 16X synergy with imipenem against P. aeruginosa strain CL5701
# Description: The assay determines the concentration of a β-lactamase inhibitor required to reduce the MIC of a β-lactam antibiotic by one-half, one-quarter, one-eighth, one-sixteenth and one-thirty-second against strains of bacteria normally resistant to the antibiotic in question. This is accomplished by titrating the BLI in a serial dilution across a microtiter plate while at the same time titrating the antibiotic in a serial dilution down the microtiter plate and then inoculating the plate with the bacterial strain in question and allowing the bacteria to grow up overnight. Each well in this microplate checkerboard contains a different combination of concentrations of the inhibitor and the antibiotic allowing a full determination of any synergy between the two.
# • CL 5701 (Pseudomonas aeruginosa; Pa AmpC)/Imipenem • MB 2646 (Enterobacter cloacae; P99)/Ceftazidime • CL 5513 (Klebsiella pneumoniae; SHV-5)/Ceftazidime • CL 6188 (Acinetobacter baumanii; Oxa40)/Imipenem • CL 6569 (Klebsiella pneumoniae; KPC-2)/Imipenem • CL 5761 (Klebsiella pneumoniae; KPC-3)/Imipenem • CLB 21648 (Acinetobacter baumanii; Ab AmpC)/Imipenem
# • 1. […] All wells in row A of MIC 2000 microtiter plates are filled with 100 μL of 2× MHBII+2% DMSO. • 3. […] 100 μL of 2× the final antibiotic concentration wanted is added to wells A2-A12 of the MIC 2000 plates. • 5. 100 μL is serially diluted from row A to row G of each MIC 2000 plate. • 6. 100 μL is removed from each well in row G of each MIC 2000 plate. • 7. 100 μL of 2× the final inhibitor concentration wanted (in MHBII+1% DMSO) is added to all wells in column 1 of the microtiter plates. • 8. 100 μL is serially diluted from column 1 to column 11 of each MIC 2000 plate. • 9. 100 μL is removed from each well in column 11 of each MIC 2000 plate. • 10. Plates are then inoculated with an overnight growth (in TSB) of the strain to be tested using an MIC 2000 inoculator. • 11. Plates are left at 37° C. for about 20 hours and scored for growth by eye.
# Synergy may be expressed as a ratio of the minimum inhibitory concentration (MIC) of an antibiotic tested in the absence of a β-lactamase inhibitor to the MIC of the same antibiotic tested in the presence of the β-lactamase inhibitor. […] Alternatively, the synergy effect may be expressed as a factor, again, utilizing a concentration of the BLI to lower the MIC of the antibiotic.
# Representative compounds of the present invention display a synergy effect. For example, the compounds of Examples 1 to 20 were determined to have 2× synergy concentrations in a range of from about 100 μM or less.
# [2] = biological target: AmpC (P. aeruginosa.) (Pseudomonas aeruginosa, UniProt P24735); assay: biochemical; details: nitrocefin substrate, pH 7
# Sequence of AmpC (P. aeruginosa.) (P24735 27-397): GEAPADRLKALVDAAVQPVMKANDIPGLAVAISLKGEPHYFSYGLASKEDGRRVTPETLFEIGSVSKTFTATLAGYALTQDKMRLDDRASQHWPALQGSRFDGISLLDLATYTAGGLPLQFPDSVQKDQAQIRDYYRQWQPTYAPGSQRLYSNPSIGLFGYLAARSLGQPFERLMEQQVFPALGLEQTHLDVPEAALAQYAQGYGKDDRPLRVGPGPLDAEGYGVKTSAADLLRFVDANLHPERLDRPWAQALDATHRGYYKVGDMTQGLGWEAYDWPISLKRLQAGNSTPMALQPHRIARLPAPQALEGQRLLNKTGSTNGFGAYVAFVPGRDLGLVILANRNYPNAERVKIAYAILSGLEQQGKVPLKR
# Description: The Class C enzyme activities were measured in the presence of the test inhibitor in spectrophotometric assay against the commercially available substrate, nitrocefin. The enzyme AmpC (P. aeruginosa.), and the substrate, were dissolved in 100 mM KH2PO4 buffer (pH 7). The buffer also contains 0.005% BSA. The test inhibitor was dissolved in DMSO and diluted 1:20 in the assay, resulting in a final concentration range of 50 μM to 0.0002 μM. In a 96-well microplate, the test inhibitor was incubated with the beta-lactamase enzyme for 40 minutes at ambient temperature, the substrate solution was added, and the incubation continued for another 40 minutes. The spectrophotomertric reaction was quenched by the addition of 2.5N acetic acid and the absorbance at 492 nm was measured. The IC50 value was determined from semi logarithmic plots of enzyme inhibition versus inhibitor concentration, with a curve generated using a 4-parameter fit.
# [3] = P. aeruginosa AmpC IC50, 40 min preincubation
# [4] = 40 min preincubation, read-out: P. aeruginosa AmpC IC50
Compound,In Vitro 2X Synergy CL5701 [1] [µM],In Vitro 8X Synergy CL5701 [1] [µM],In Vitro 16X Synergy CL5701 [1] [µM],"IC50 [2, 3] [nM]","IC50 [2, 4] [nM]"
"O=C(NC1CCCCNCC1)N1CC[C@@H]2[C@H]1C(=O)N2S(=O)(=O)O (single isomer, unassigned; isomer a) [Example 17]",3.1,12.5,50,1300,–
"O=C(NC1CCCCNCC1)N1CC[C@@H]2[C@H]1C(=O)N2S(=O)(=O)O (single isomer, unassigned; isomer b) [Example 18]",12.5,>100,>100,25000,–
"O=C(NC1CCNCC1)N1CC[C@@H]2[C@H]1C(=O)N2S(=O)(=O)O [Compound A, reference compound]",3.7,21,67,6800,–
O=C(N[C@H]1CCCNCC1)N1CC[C@@H]2[C@H]1C(=O)N2S(=O)(=O)O [Example 1],2.3,–,25,–,1200
O=C(N[C@@H]1CCCNCC1)N1CC[C@@H]2[C@H]1C(=O)N2S(=O)(=O)O [Example 2],3.1,25,100,–,4000
O=C(NC1CCCCCC1)N1CC[C@@H]2[C@H]1C(=O)N2S(=O)(=O)O [Example 3],100,>100,>100,400,–
"O=C(N[C@@H]1CNCCOC1)N1CC[C@@H]2[C@H]1C(=O)N2S(=O)(=O)O [Example 7, (1S,5R)-2-{[(6R)-1,4-Oxazepan-6-ylamino]carbonyl}-7-oxo-2,6-diazabicyclo[3.2.0]heptane-6-sulfonic acid]",6.3,25,100,–,600
"O=C(N[C@H]1CNCCOC1)N1CC[C@@H]2[C@H]1C(=O)N2S(=O)(=O)O [Example 8, (1S,5R)-2-{[(6S)-1,4-Oxazepan-6-ylamino]carbonyl}-7-oxo-2,6-diazabicyclo[3.2.0]heptane-6-sulfonic acid]",6.3,50,100,–,1100
